No end group written: not given here.
System: E. coli ATCC 25922
Assay type: cell-based, Escherichia coli
Conditions: ATCC 25922, 24 h
Description: The term “MIC” refers to minimal inhibitory concentration and will be defined as the lowest concentration of either soluble peptide or peptide immobilized on a polymer that results in total kill of bacteria.
The minimal inhibitory concentration (MIC) for the peptides was determined in sterile microtiter plates in a final volume of 200 μL using Trypticase Soy Broth (TSB; Difco Laboratories, Detroit, Mich.) as the growth medium. Serial two-fold dilutions of the peptide stock were made in the plate wells such that concentrations ranged from 512 to 2 μg/mL in a volume of 100 μL. Each well was then inoculated with 100 μL of a dilute suspension of bacteria in TSB yielding a final concentration of 1×10^4 bacteria/mL. The final peptide concentrations ranged from […]. The assay plates were incubated at 37° C. for 24 hours inside a Bioscreen C microtitre plate reader (Thermo Labsystems; Vantaa, Finland). Optical Density (OD) of the medium at 600 nm was recorded every 20 minutes to monitor cell growth. The lowest concentration of peptide preventing bacterial growth during the 24 hr period was defined as the MIC.

| Sequence | MIC [µg/mL] |
| --- | --- |
| FKAFKAFKAFKAFKA [SEQ ID NO: 4, FKAFKAFKAFKAFKA] | 128 |
| FKAFKAFKAFKAFKAFKA [SEQ ID NO: 5, FKAFKAFKAFKAFKAFKA] | 32 |
| LKALKALKALKALKR [SEQ ID NO: 1, LKALKALKALKALKR] | 64 |
| LKVLKVLKVLKVLKV [SEQ ID NO: 2, LKVLKVLKVLKVLKV] | 32 |
| LKVLKVLKVLKVLKVLKV [SEQ ID NO: 3, LKVLKVLKVLKVLKVLKV] | 4 |
